Measurements from PubChem BioAssay (NCI).
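Step 1: Grow cells in 96-well plates. Step 2: Expose to compound for 48 hours at 5 concentrations. Step 3: Interpolate endpoints linearly; if unreached, use highest concentration. The concentration for full growth arrest is given as TGI.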

Assays:
Assay in all cases: inhibition of tumour cell growth, NCI panel, 48 h
OVCAR-8 ovarian = tested on: OVCAR-8 ovarian
XF 498 CNS = tested on: XF 498 CNS
SK-MEL-2 melanoma = tested on: SK-MEL-2 melanoma
M14 melanoma = tested on: M14 melanoma
TK-10 renal = tested on: TK-10 renal
DMS 273 small cell lung = tested on: DMS 273 small cell lung
RPMI-8226 leukemia = tested on: RPMI-8226 leukemia
SK-OV-3 ovarian = tested on: SK-OV-3 ovarian
IGROV1 ovarian = tested on: IGROV1 ovarian
SK-MEL-5 melanoma = tested on: SK-MEL-5 melanoma
NCI-H522 lung = tested on: NCI-H522 lung
CAKI-1 renal = tested on: CAKI-1 renal
LXFL 529 NSCLC = tested on: LXFL 529 NSCLC
SN12C renal = tested on: SN12C renal
HOP-62 NSCLC = tested on: HOP-62 NSCLC
SK-MEL-28 melanoma = tested on: SK-MEL-28 melanoma
NCI-H460 lung = tested on: NCI-H460 lung
A498 renal = tested on: A498 renal
MALME-3M melanoma = tested on: MALME-3M melanoma
DLD-1 colon = tested on: DLD-1 colon
UACC-62 melanoma = tested on: UACC-62 melanoma
KM12 colon = tested on: KM12 colon
K-562 leukemia = tested on: K-562 leukemia
OVCAR-5 ovarian = tested on: OVCAR-5 ovarian
ACHN renal = tested on: ACHN renal
UO-31 renal = tested on: UO-31 renal
U251 CNS = tested on: U251 CNS
MOLT-4 leukemia = tested on: MOLT-4 leukemia
HOP-18 NSCLC = tested on: HOP-18 NSCLC
NCI-H23 lung = tested on: NCI-H23 lung
SW-620 colon = tested on: SW-620 colon
SF-539 CNS = tested on: SF-539 CNS
SNB-19 CNS = tested on: SNB-19 CNS
SNB-78 CNS = tested on: SNB-78 CNS
HL-60(TB) leukemia = tested on: HL-60(TB) leukemia
HOP-92 NSCLC = tested on: HOP-92 NSCLC
SNB-75 CNS = tested on: SNB-75 CNS
HCT-15 colon = tested on: HCT-15 colon
786-0 renal = tested on: 786-0 renal
OVCAR-4 ovarian = tested on: OVCAR-4 ovarian
DMS 114 small cell lung = tested on: DMS 114 small cell lung
SF-268 CNS = tested on: SF-268 CNS
COLO 205 colon = tested on: COLO 205 colon
SF-295 CNS = tested on: SF-295 CNS
KM20L2 colon = tested on: KM20L2 colon
UACC-257 melanoma = tested on: UACC-257 melanoma
NCI-H226 lung = tested on: NCI-H226 lung
CCRF-CEM leukemia = tested on: CCRF-CEM leukemia
HCC-2998 colon = tested on: HCC-2998 colon
OVCAR-3 ovarian = tested on: OVCAR-3 ovarian
EKVX NSCLC = tested on: EKVX NSCLC
M19-MEL melanoma = tested on: M19-MEL melanoma
A549 NSCLC = tested on: A549 NSCLC
HT29 colon = tested on: HT29 colon
RXF 393 renal = tested on: RXF 393 renal
HCT-116 colon = tested on: HCT-116 colon
LOX IMVI melanoma = tested on: LOX IMVI melanoma

Compound `CCn1c(=O)nc2n(-c3ccccc3)c3ccccc3nc-2c1=O` has a TGI (OVCAR-8 ovarian) of 67.9 µM, a TGI (XF 498 CNS) of 34.5 µM and a TGI (SK-MEL-2 melanoma) of 76.3 µM. The TGI (M14 melanoma) was 35 µM, the TGI (TK-10 renal) was over 100 µM and the TGI (DMS 273 small cell lung) was 34.7 µM. It also gave a TGI (RPMI-8226 leukemia) of over 100 µM, a TGI (SK-OV-3 ovarian) of over 100 µM and a TGI (IGROV1 ovarian) of 74.2 µM. The TGI (SK-MEL-5 melanoma) was 22.8 µM, the TGI (NCI-H522 lung) was over 100 µM and the TGI (CAKI-1 renal) was over 100 µM. It also gave a TGI (LXFL 529 NSCLC) of over 100 µM, a TGI (SN12C renal) of 64.8 µM and a TGI (HOP-62 NSCLC) of over 100 µM. It also gave a TGI (SK-MEL-28 melanoma) of over 100 µM, a TGI (NCI-H460 lung) of over 100 µM and a TGI (A498 renal) of over 100 µM. For the same compound, the TGI (MALME-3M melanoma) was 31.7 µM, the TGI (DLD-1 colon) was over 100 µM and the TGI (UACC-62 melanoma) was 31.9 µM. For the same compound, the TGI (KM12 colon) was over 100 µM, the TGI (K-562 leukemia) was 61.2 µM and the TGI (OVCAR-5 ovarian) was 66.4 µM. The TGI (ACHN renal) was 68.7 µM, the TGI (UO-31 renal) was over 100 µM and the TGI (U251 CNS) was 75.2 µM. The TGI (MOLT-4 leukemia) was 40.4 µM, the TGI (HOP-18 NSCLC) was over 100 µM and the TGI (NCI-H23 lung) was over 100 µM. The TGI (SW-620 colon) was 86.5 µM, the TGI (SF-539 CNS) was 38.8 µM and the TGI (SNB-19 CNS) was 76 µM. For the same compound, the TGI (SNB-78 CNS) was over 100 µM, the TGI (HL-60(TB) leukemia) was 38.5 µM and the TGI (HOP-92 NSCLC) was 62.4 µM. The TGI (SNB-75 CNS) was over 100 µM, the TGI (HCT-15 colon) was 65.4 µM and the TGI (786-0 renal) was over 100 µM. For the same compound, the TGI (OVCAR-4 ovarian) was 25.9 µM, the TGI (DMS 114 small cell lung) was 30.3 µM and the TGI (SF-268 CNS) was 85.1 µM. It also gave a TGI (COLO 205 colon) of 16 µM, a TGI (SF-295 CNS) of over 100 µM and a TGI (KM20L2 colon) of 85.4 µM. The TGI (UACC-257 melanoma) was 38.7 µM, the TGI (NCI-H226 lung) was 63.8 µM and the TGI (CCRF-CEM leukemia) was 72.3 µM. For the same compound, the TGI (HCC-2998 colon) was 94 µM, the TGI (OVCAR-3 ovarian) was 43.1 µM and the TGI (EKVX NSCLC) was over 100 µM. The TGI (M19-MEL melanoma) was 25.2 µM and the TGI (A549 NSCLC) was over 100 µM.

With `Cn1c(=O)nc2n(-c3cc(Cl)ccc3Cl)c3ccccc3nc-2c1=O` the TGI (OVCAR-8 ovarian) was 14.4 µM, the TGI (XF 498 CNS) was 18.9 µM and the TGI (SK-MEL-2 melanoma) was 18.1 µM. It also gave a TGI (M14 melanoma) of 15.2 µM, a TGI (HT29 colon) of 5.47 µM and a TGI (RXF 393 renal) of 34.1 µM. The TGI (TK-10 renal) was 30.4 µM, the TGI (DMS 273 small cell lung) was 16.2 µM and the TGI (RPMI-8226 leukemia) was 33.7 µM. The TGI (SK-OV-3 ovarian) was 91.9 µM, the TGI (IGROV1 ovarian) was 29.7 µM and the TGI (SK-MEL-5 melanoma) was 4.55 µM. For the same compound, the TGI (NCI-H522 lung) was 18.8 µM, the TGI (CAKI-1 renal) was 27.8 µM and the TGI (HCT-116 colon) was 16.2 µM. It also gave a TGI (LXFL 529 NSCLC) of 28.3 µM, a TGI (SN12C renal) of 16.7 µM and a TGI (HOP-62 NSCLC) of 46.4 µM. The TGI (NCI-H460 lung) was 13.4 µM, the TGI (A498 renal) was 35.7 µM and the TGI (MALME-3M melanoma) was 12.2 µM. It also gave a TGI (DLD-1 colon) of 16.6 µM, a TGI (UACC-62 melanoma) of 3.38 µM and a TGI (KM12 colon) of 20.1 µM. It also gave a TGI (K-562 leukemia) of over 100 µM, a TGI (OVCAR-5 ovarian) of 25.7 µM and a TGI (ACHN renal) of 13.6 µM. It also gave a TGI (UO-31 renal) of 26.4 µM, a TGI (U251 CNS) of 20.4 µM and a TGI (MOLT-4 leukemia) of 28.6 µM. It also gave a TGI (HOP-18 NSCLC) of 25.3 µM, a TGI (NCI-H23 lung) of 4.06 µM and a TGI (SW-620 colon) of 6.86 µM. It also gave a TGI (SF-539 CNS) of 19.5 µM, a TGI (SNB-19 CNS) of 13.3 µM and a TGI (SNB-78 CNS) of 31.6 µM. The TGI (SNB-75 CNS) was 24.6 µM, the TGI (HCT-15 colon) was 15.4 µM and the TGI (786-0 renal) was 34.6 µM. The TGI (OVCAR-4 ovarian) was 17.8 µM, the TGI (DMS 114 small cell lung) was 4.92 µM and the TGI (SF-268 CNS) was 30.7 µM. It also gave a TGI (COLO 205 colon) of 6.43 µM, a TGI (SF-295 CNS) of 21.2 µM and a TGI (KM20L2 colon) of 7.9 µM. It also gave a TGI (UACC-257 melanoma) of 5.2 µM, a TGI (NCI-H226 lung) of 22 µM and a TGI (CCRF-CEM leukemia) of 21.3 µM. For the same compound, the TGI (HCC-2998 colon) was 9.32 µM, the TGI (OVCAR-3 ovarian) was 9.92 µM and the TGI (EKVX NSCLC) was 13 µM. The TGI (M19-MEL melanoma) was 2.85 µM and the TGI (A549 NSCLC) was 21.9 µM.

With `COc1ccc2c(c1)[n+](=O)c(C(=O)C/C(=N/NC(=O)c1ccccc1O)C(=O)Nc1ccc(Cl)c(C(F)(F)F)c1)c(C)n2[O-]` the TGI (OVCAR-8 ovarian) was over 100 µM, the TGI (XF 498 CNS) was over 100 µM and the TGI (SK-MEL-2 melanoma) was over 100 µM. It also gave a TGI (M14 melanoma) of over 100 µM, a TGI (HT29 colon) of over 100 µM and a TGI (RXF 393 renal) of over 100 µM. It also gave a TGI (TK-10 renal) of over 100 µM, a TGI (DMS 273 small cell lung) of over 100 µM and a TGI (SK-OV-3 ovarian) of over 100 µM. It also gave a TGI (IGROV1 ovarian) of over 100 µM, a TGI (SK-MEL-5 melanoma) of over 100 µM and a TGI (NCI-H522 lung) of over 100 µM. For the same compound, the TGI (HCT-116 colon) was over 100 µM, the TGI (LXFL 529 NSCLC) was over 100 µM and the TGI (SN12C renal) was over 100 µM. The TGI (LOX IMVI melanoma) was over 100 µM, the TGI (HOP-62 NSCLC) was over 100 µM and the TGI (SK-MEL-28 melanoma) was over 100 µM. It also gave a TGI (NCI-H460 lung) of over 100 µM, a TGI (A498 renal) of over 100 µM and a TGI (MALME-3M melanoma) of over 100 µM. For the same compound, the TGI (DLD-1 colon) was over 100 µM, the TGI (UACC-62 melanoma) was over 100 µM and the TGI (KM12 colon) was over 100 µM. For the same compound, the TGI (K-562 leukemia) was over 100 µM, the TGI (OVCAR-5 ovarian) was over 100 µM and the TGI (ACHN renal) was over 100 µM. For the same compound, the TGI (UO-31 renal) was 50.5 µM, the TGI (U251 CNS) was over 100 µM and the TGI (MOLT-4 leukemia) was over 100 µM. The TGI (HOP-18 NSCLC) was over 100 µM, the TGI (NCI-H23 lung) was over 100 µM and the TGI (SW-620 colon) was over 100 µM. It also gave a TGI (SF-539 CNS) of over 100 µM, a TGI (SNB-19 CNS) of over 100 µM and a TGI (SNB-78 CNS) of over 100 µM. The TGI (HOP-92 NSCLC) was over 100 µM, the TGI (SNB-75 CNS) was over 100 µM and the TGI (HCT-15 colon) was over 100 µM. The TGI (786-0 renal) was over 100 µM, the TGI (OVCAR-4 ovarian) was over 100 µM and the TGI (DMS 114 small cell lung) was over 100 µM. For the same compound, the TGI (SF-268 CNS) was over 100 µM, the TGI (COLO 205 colon) was over 100 µM and the TGI (SF-295 CNS) was over 100 µM. The TGI (KM20L2 colon) was over 100 µM, the TGI (UACC-257 melanoma) was over 100 µM and the TGI (NCI-H226 lung) was over 100 µM. It also gave a TGI (CCRF-CEM leukemia) of over 100 µM, a TGI (HCC-2998 colon) of over 100 µM and a TGI (OVCAR-3 ovarian) of 87.1 µM. It also gave a TGI (EKVX NSCLC) of over 100 µM, a TGI (M19-MEL melanoma) of over 100 µM and a TGI (A549 NSCLC) of over 100 µM.
